# According to patent US20080004694A1, “COMPOSITIONS AND METHODS FOR ADMINISTERING DEXAMETHASONE WHICH PROMOTE HUMAN CORONARY ARTERY ENDOTHELIAL CELL MIGRATION” (ABBOTT LABORATORIES, priority 2006, published 2008):
# Entries after “also recorded” stand apart in the source; their conditions may differ.
# Assays:
# [1] = tested on: human coronary artery smooth muscle cells (hCaSMC); test: PDGF-BB induced hCaSMC migration after 24 h drug pretreatment; format: cell-based; conditions: 24 h pretreatment; PDGF-BB 25 ng/ml
# Experimental: (§1) In acute studies, cells were collected, counted, and 200,000 hCaEC or 160,000 hCaSMC placed in the upper chambers of modified boyden chambers in 24 well plates (BD Biosciences). Plates contained microporous membranes of 3.0 and 8.0 um for hCaEC and hCaSMC, respectively. […] After migration, cells were stained with calcein-AM for 90 minutes and fluorescence determined using a plate reader capable of measuring fluorescence emitted by the bottom of the microporous filter.
# Pre-exposure with the mTOR agent sirolimus has been reported to block rat aortic smooth muscle cell migration in response to S1P-1 and porcine aortic smooth muscle in response to PDGF-BB. […] In contrast to their inability to block serum-induced migration, zotarolimus, dexamethasone, and paclitaxel all inhibited migration in response to the single chemotactic agent PDGF-BB (25 ng/ml).
# [2] = tested on: human coronary artery endothelial cells (hCaEC); test: hCaEC migration induced by full growth media after 24 h drug pretreatment; format: cell-based; conditions: for effect on full growth media induced hCaEC migration after drug pretreatment: 24 h pretreatment in full growth media, drug present during migration
# Experimental: as §1
# Migration of hCaEC was induced by full growth media and the effects of the drugs sirolimus, dexamethasone, zotarolimus, everolimus, and paclitaxel on hCaEC migration determined. Following pretreatment cells were counted and re-suspended in basal media containing drugs and migration initiated.
# [3] = tested on: pRb phosphorylation; test: pRb phosphorylation; format: cell-based
# [4] = tested on: p70S6K (T389) phosphorylation in hCaSMC; test: Western blot of p70S6K (T389) phosphorylation in hCaSMC; format: cell-based, human; conditions: 300 nM drug, 36 hours, after 24 h synchronization
# Experimental: To determine if inhibition of p70S6K was involved in serum-induced migration Western blot experiments were performed on hCaEC and hCaSMC treated using an experimental paradigm similar to those of the migration experiments. […] The effects of drug treatment on p70S6K T389 phosphorylation in hCaEC are illustrated in FIG. 6A-6B. […] Paclitaxel also reduces T389 phosphorylation though this effect is less than that of the mTOR antagonists.
# Membranes were probed with a rabbit anti-phospho-p70S6K (T389) monoclonal antibody (Cell Signaling). […] Furthermore, the anti-migratory activity of the mTOR antagonists is not likely to contribute to their anti-restenotic activity. Conversely, paclitaxel is a potent anti-migratory agent and this effect is likely to contribute to the anti-restenotic activity.
# [5] = tested on: human coronary artery endothelial cells (hCaEC); test: hCaEC migration, modified Boyden chamber, acute drug exposure, induced by 5% FBS; format: cell-based; conditions: for effect on hCaEC migration: no pretreatment, 22 hour migration
# Experimental: As such, EC and SMC migration in response to hFGF, HEGF, VEGF, R^3-IGF-1 and FBS or FBS alone was determined using a modified Boyden chamber.
# When necessary, each cell type was passed at ˜75% confluence.
# as §1
# [6] = tested on: p70S6K (T389) phosphorylation in hCaEC; test: Western blot of p70S6K (T389) phosphorylation in hCaEC; format: cell-based, human; conditions: for effect on p70S6K T389 phosphorylation in hCaEC: 300 nM drug in growth media, 36 hours, after 24 h synchronization
# Experimental: Human Coronary Endothelial Cells (hCaEC, Cambrex) were seeded on 100 mm plastic dishes (1-3×10^5 cells per dish) and incubated at 37° C. with 5% CO2 in complete growth media containing hFGF, HEGF, VEGF, R^3-IGF-1 and 5% FBS (GM). Cells were allowed to grow until dishes were 30-40% confluent. Cells were synchronized by incubation in basal media without supplements (BM) for 24 h. After synchronization the BM was replaced with GM containing test compounds, DMSO and BSA (Experimental dish: GM containing 300 nM test compounds, 0.1% BSA; Positive control: GM containing 0.1% BSA and 0.1% DMSO; Negative control: BM containing 0.1 or 0.5% FBS, 0.1% BSA and 0.1% DMSO).
# Cells were incubated for 24 or 36 hours at 37° C. with 5% CO2. After which dishes were 50-70% confluent. Dishes were rinsed with warm PBS to remove excess FBS and than placed on ice. Whole cell lysates were prepared by adding 150-200 ul of RIPA lysis buffer at 4° C. (50 mM Tris HCl pH 8, 150 mM NaCl, 1% NP-40, 0.5% sodium deoxycholate, 0.1% SDS, 2 mM PMSF, 1 mM sodium orthovanadate, and protease inhibitor cocktail, Santa Cruz Biotechnology) to the culture dishes and collected by scrapping the plate surface with a cell scrapper. Lysates were transferred to 1 ml eppendorf tubes and incubated on ice with vortexing for 30 min. Samples were than centrifuged for 8 min at 10000 rpm. Supernatants were collected and transferred into new tubes and stored at −70° C.
# The total protein concentration of the samples was determined by a modification of the method of Bradford (Quick Start Bradford Microplate Standard Assay, Bio-Rad) with bovine γ-globulin as a standard.
# Total volume of the loaded sample was 45 ul containing 15 ul of 3× sample buffer (Laemmli Sample Buffer, Bio Rad), and sample (30 ul) containing 25 to 50 ug of protein. Samples were diluted to the same protein concentration. Samples were mixed and boiled at 98° C. for 3-4 minutes. Denaturated samples were separated in 4-15% gradient or 12% Ready Tris-HCl gels (Bio-Rad) in running buffer 25 mM Tris, pH 8.3, 192 mM glycine, 0.1% SDS at 150-180 V for 60-90 minutes and transferred to Hybond-ECL membrane (Amersham Biosciences) in 25 mM Tris, pH 8.3, 192 mM glycine, 20% methanol at 100 V for 1 hour.
# Protein transfer to the membrane was verified by staining with Ponceau. Ponceau was removed by washing membranes 3 times for 5 minutes in TBS-T (10 mM Tris, pH 7.4, 150 mM NaCl, and 0.1% Tween 20). The membrane was blocked with a 3% solution of nonfat dry milk (Blotting-Grade Blocker, Bio-Rad) in TBS-T for 1 hour at room temperature. Membranes were then incubated with rabbit anti-phospho-p70S6K (T389) monoclonal antibody (Cell Signaling) 1:200 or 1:400 in 3% nonfat dry milk overnight at +4° C. and gently rocked. Goat polyclonal antibodies raised against the C-terminus of actin of human origin (Santa-Cruz Biotechnology) were used at a 1:800 dilution.
# After overnight incubation with the primary antibody, membranes were washed with TBS-T 3 times for 5 minutes followed by incubation with the appropriate horseradish peroxidase linked secondary antibodies in 3% nonfat dry milk according to antibody supplier instructions. After one-hour incubation at room temperature with secondary antibodies the membrane was washed again using TBS-T, 3 times for 5 minutes and developed using ECL Plus (Amersham Biosciences). Images of the membranes were scanned and stored using a multi-channel scanning system FLA-5000 (FUJI Film). […]
# [7] = tested on: human coronary artery endothelial cells (hCaEC); test: hCaEC migration in response to FBS after 24 h drug pretreatment; format: cell-based; conditions: 24 h pretreatment in growth media; migration to 5% FBS without growth factors; drug present
# Experimental: as §1
# To determine if growth factors contained in full growth media played a role in the inability of the mTOR antagonists (sirolimus or zotarolimus) or dexamethasone to inhibit migration, additional experiments were conducted to determine if drug pretreatment would affect migration induced by 5% FBS in the absence of growth factors. Migration in response to FBS following pretreatment of hCaEC with different concentrations of drugs was determined for the drugs sirolimus, dexamethasone, zotarolimus, and paclitaxel. To explore this effect in hCaEC, cells were synchronized, pretreated with drug in growth media for 24 hours, resuspended in basal media containing drug and migration in response to FBS determined. […] Dexamethasone promoted hCaEC migration.
# [8] = tested on: human coronary artery smooth muscle cells (hCaSMC); test: hCaSMC migration in response to FBS alone after 24 h drug pretreatment; format: cell-based; conditions: 24 h pretreatment in growth media, drug present
# Experimental: as §1
# Another experiment was conducted to determine if growth factors contained in full growth media played a role in the inability of the mTOR antagonist zotarolimus or dexamethasone to inhibit human coronary artery smooth muscle cell (hCaSMC) migration. Migration in response to FBS following pretreatment of hCaSMC with different concentrations of drugs was determined for the drugs dexamethasone, zotarolimus, rapamycin, and paclitaxel. To explore this effect, hCaSMC were synchronized, pretreated with drug in growth media for 24 hours, resuspended in basal media containing drug and migration in response to FBS alone determined.
structure (smiles),measurement,setting,value
CO[C@H]1C[C@@H]2CC[C@@H](C)[C@@](O)(O2)C(=O)C(=O)N2CCCC[C@H]2C(=O)O[C@H]([C@H](C)C[C@@H]2CC[C@H](n3cnnn3)[C@H](OC)C2)CC(=O)[C@H](C)/C=C(\C)[C@@H](O)[C@@H](OC)C(=O)[C@H](C)C[C@H](C)/C=C/C=C/C=C/1C [zotarolimus],effect on hCaSMC migration in response to PDGF-BB,[1],inhibited
same,effect on full growth media induced hCaEC migration after drug pretreatment,[2],only paclitaxel inhibits
same,effect on pRb phosphorylation,[3],reduces
same,effect on p70S6K T389 phosphorylation in hCaSMC,[4],completely inhibit
same,effect on hCaEC migration,[5],no effect
same,effect on p70S6K T389 phosphorylation in hCaEC,[6],completely block; also recorded: inhibit
same,p70S6K T389 to actin ratio compared to growth controls (densitometry),"[6]; hCaEC, 300 nM drug",significant inhibition
same,effect on FBS-induced hCaEC migration after drug pretreatment,[7],did not significantly block
same,effect on FBS-induced hCaSMC migration after drug pretreatment,[8],did not significantly block
CO[C@H]1C[C@@H]2CC[C@@H](C)[C@@](O)(O2)C(=O)C(=O)N2CCCC[C@H]2C(=O)O[C@H]([C@H](C)C[C@@H]2CC[C@@H](O)[C@H](OC)C2)CC(=O)[C@H](C)/C=C(\C)[C@@H](O)[C@@H](OC)C(=O)[C@H](C)C[C@H](C)/C=C/C=C/C=C/1C [sirolimus],effect on hCaEC migration,[5],no effect
CO[C@H]1C[C@@H]2CC[C@@H](C)[C@@](O)(O2)C(=O)C(=O)N2CCCC[C@H]2C(=O)O[C@H]([C@H](C)C[C@@H]2CC[C@@H](OCCO)[C@H](OC)C2)CC(=O)[C@H](C)/C=C(\C)[C@@H](O)[C@@H](OC)C(=O)[C@H](C)C[C@H](C)/C=C/C=C/C=C/1C [everolimus],effect on full growth media induced hCaEC migration after drug pretreatment,[2],only paclitaxel inhibits
CC(=O)O[C@H]1C(=O)[C@@]2(C)[C@H]([C@H](OC(=O)c3ccccc3)[C@]3(O)C[C@H](OC(=O)[C@H](O)[C@@H](NC(=O)c4ccccc4)c4ccccc4)C(C)=C1C3(C)C)[C@]1(OC(C)=O)CO[C@@H]1C[C@@H]2O [paclitaxel],effect on hCaSMC migration in response to PDGF-BB,[1],inhibited
same,effect on full growth media induced hCaEC migration after drug pretreatment,[2],inhibits
same,effect on migration of human coronary artery endothelial cells in vitro (summary statement),[2]; in the presence of multiple growth factors and FBS,inhibits
same,effect on p70S6K T389 phosphorylation in hCaSMC,[4],reduces
same,anti-migratory potency in hCaEC compared to hCaSMC,[5],significantly greater
same,effect on p70S6K T389 phosphorylation in hCaEC,[6],inhibit
same,effect on p70S6K T389 phosphorylation in hCaEC,[6]; listed as Paclitaxel,reduces
same,effect on FBS-induced hCaEC migration after drug pretreatment,[7],significantly blocks
same,effect on FBS-induced hCaSMC migration after drug pretreatment,[8],significantly blocks
C[C@@H]1C[C@H]2[C@@H]3CCC4=CC(=O)C=C[C@]4(C)[C@@]3(F)[C@@H](O)C[C@]2(C)[C@@]1(O)C(=O)CO [dexamethasone],effect on p70S6K T389 phosphorylation in hCaEC,[6],does not inhibit
